Laboratory results as given in US6897316B2, “Substituted 2-phenyl-4-quinolone-3-carboxylic acid compounds and their use as antitumor agents” (China Medical University, priority 2003, dated 2005).

How the values were obtained:
OVCAR-4 (ovarian cancer) = test: Growth inhibition in human cancer cell line panel, OVCAR-4; assay type: cell-based; conditions: 48 hr, SRB
Procedure: Compound IX-8 was evaluated growth inhibition activities against a panel of 39 human cancer cell lines including Human breast cancer MDA-MB-231 and the following human cancer cell lines were generously distributed by the National Cancer Institute (Frederick, Md.): lung cancer, NCI-H23, NCI-H226, NCI-H522, NCI-H460, A-549, DMS273 and DMS114; colon cancer, HGC-2998, KM-12, HT-29, HCT-15, and HCT-116; ovarian cancer, OVCAR-3, OVCAR-4, OVCAR-5, OVCAR-8, and SKOV-3; breast cancer, MCF-7; renal cancer, RXF-631L and ACHN; melanoma, LOX-IMVI; brain tumor, U251, SF-295, SF-539, SF-268, SNB-75, and SNB-78, and prostate cancer, DU-145 and PC-3. […]
The details of measuring cell growth inhibition are described elsewhere [Monks, A., Scudiero, D., Skehan, P., Shoemaker, R., Paull, K., Vistica, D., Hose, C., Langley, J., Cronise, P., Vaigro-Wolff, A., Gray-Goodrich, M., Campbell, H., Mayo, J., Boyd, M. Feasibility of a high-flux anticancer drug screen using a diverse panel of cultured human tumor cell lines. […] Then, the cell growth was determined according to the Sulforhodamine B assay, described by Skehan et al [Skehan, P., Storeng, R., Scudiero, D., Monks, A., McMahon, J., Vistica, D., Warren, J. T., Bokesch, H., Kenney, S., Boyd, M. R. New calorimetric cytotoxicity assay for anticancer-drug screening. […]

COc1ccc2[nH]c(-c3cccc(F)c3)c(C(=O)O)c(=O)c2c1 [IX-8, 3′-Fluoro-6-methoxy-2-phenyl-4-quinolone-3-carboxylic acid]
GI50 (OVCAR-4 (ovarian cancer)): 174 nM | melting point: 268 °C (dec.)
